Values joined by “and” are separate entries in the source; they are usually repeats but may differ in a detail not shown here. Equal entries are not always repeated.

The nature of data set [1]: association constant (Kc) from phase solubility diagrams. Conditions: for association constant Kc (phase solubility): inclusion complex with β-lap, PBS, 25° C., 1:1. The format is physicochemical. As to the method:
Solubility studies were performed by adding excess amount of β-lap to a series of PBS buffer that contain different concentrations of each CD molecule ranging from zero to its solubility limit (see Table 1 for the solubility limit of each CD molecule). A schematic diagram of the intermolecular interactions and their effect on solubility is provided as FIG. 1. The suspensions were stirred at 25° C. until dissolution equilibrium was reached. Then aliquots were withdrawn, filtered (Nylon syringe filter 0.2 μm pore size from Fisher Scientific (Pittsburg, Pa.)) and analyzed for β-lap concentrations by UV-V is spectrophotometry (λmax=257.2 nm, ε=109.6 ml/(mg·cm)). Phase solubility diagram for each CD was obtained by plotting the β-lap solubility at dissolution equilibrium as a function of the CD concentration. The association constant (Kc) [formula] for the complex formation was calculated based on Equation 1 assuming a 1:1 ratio of complex formation (T. Higuchi and K. A. Connors. Adv Anal Chem Instrum. 4:117-212 (1965)). ^1H NMR Study of CD.β-lap Inclusion Complexes

For data set [2], the system named is NQO1-containing LNCaP clones. The experiment in a line: colony forming ability assays. Conditions: 4-h pulses. The format is cell-based, human. As for the experimental part: FIG. 14. […] Colony forming ability assays (CFAs) were performed three times, each in triplicate.
LNCaP cells were transfected with either pcDNA3 empty vector or pcDNA3 containing full-length NQO1 cDNA.

The next data set deals with A549 NSCLC cells. The experiment in a line: survival and apoptosis (PARP cleavage) of NSCLC cells. Format: cell-based, human. Conditions: 50 μM, 4 h.
The nature of data set [3]: phase solubility studies of β-lap with cyclodextrins. Format: physicochemical. As for the experimental part:
Solubility studies were performed by adding excess amount of β-lap to a series of PBS buffer that contain different concentrations of each CD molecule ranging from zero to its solubility limit (see Table 1 for the solubility limit of each CD molecule). A schematic diagram of the intermolecular interactions and their effect on solubility is provided as FIG. 1. The suspensions were stirred at 25° C. until dissolution equilibrium was reached. […] Phase solubility diagram for each CD was obtained by plotting the β-lap solubility at dissolution equilibrium as a function of the CD concentration.

In a further data set the test system is LNCaP. The experiment in a line: TUNEL apoptosis assay. Format: cell-based, human. Conditions: 10 μM, 4h.
For another data set, the system named is PC-3. The experiment in a line: TUNEL apoptosis assay. The format is cell-based, human. Conditions: 10 μM, 4h, TUNEL 48h.
Another data set relates to DU-145. The experiment in a line: TUNEL apoptosis assay. The format is cell-based, human. Conditions: 10 μM, 4h, TUNEL 48h.

Text for A549 NSCLC cells: NQO1-dependent apoptosis of A549 or CC-10 NSCLC cells by β-lap.

`OC[C@H]1O[C@@H]2O[C@H]3[C@H](O)[C@@H](O)[C@@H](O[C@H]4[C@H](O)[C@@H](O)[C@@H](O[C@H]5[C@H](O)[C@@H](O)[C@@H](O[C@H]6[C@H](O)[C@@H](O)[C@@H](O[C@H]7[C@H](O)[C@@H](O)[C@@H](O[C@H]1[C@H](O)[C@H]2O)O[C@@H]7CO)O[C@@H]6CO)O[C@@H]5CO)O[C@@H]4CO)O[C@@H]3CO` [α-CD]: the “association constant Kc (phase solubility)” value in data set [1] was 20.0 ± 0.7 M⁻¹ and 20 M⁻¹.
In the case of `CC1=CC(=O)c2ccccc2C1=O` [menadione], the “sensitivity compared to NQO1-deficient LN-pcDNA3 vector alone cells” value in data set [2] is reported as “resistant”.
With `O=c1oc2ccccc2c(O)c1Cc1c(O)c2ccccc2oc1=O` [dicoumarol], the “effect on cell growth (survival), alone” value in the data set with A549 NSCLC cells is reported as “no effect”.
As to hydroxypropyl β-cyclodextrin [HPβ-CD], in data set [3], the “solubility (limit) of HPβ-CD” value stood at 360 mM.
For the compound `OC[C@H]1O[C@@H]2O[C@H]3[C@H](O)[C@@H](O)[C@@H](O[C@H]4[C@H](O)[C@@H](O)[C@@H](O[C@H]5[C@H](O)[C@@H](O)[C@@H](O[C@H]6[C@H](O)[C@@H](O)[C@@H](O[C@H]7[C@H](O)[C@@H](O)[C@@H](O[C@H]8[C@H](O)[C@@H](O)[C@@H](O[C@H]9[C@H](O)[C@@H](O)[C@@H](O[C@H]1[C@H](O)[C@H]2O)O[C@@H]9CO)O[C@@H]8CO)O[C@@H]7CO)O[C@@H]6CO)O[C@@H]5CO)O[C@@H]4CO)O[C@@H]3CO` [γ-CD], in data set [1], the “Kc increase over α-CD (factor)” value is reported as 8; the “association constant Kc (phase solubility)” value was 160 ± 5 M⁻¹ and 160 M⁻¹.
On to `CC[C@@]1(O)C(=O)OCc2c1cc1n(c2=O)Cc2cc3ccccc3nc2-1` [Camptothecin, camptothecin], for which the “Apoptosis (%) After Drug Treatment” value in the data set with LNCaP (LNCaP + DC (50 μM dicoumarol), TUNEL 48h) turned out to be 33 ± 9%; in the data set with LNCaP (LNCaP + DVED, TUNEL 48h) it was 10 ± 3%; in the data set with LNCaP (LNCaP, TUNEL 48h post-treatment), 30 ± 5%; in the data set with PC-3 (PC-3 + DC (50 μM dicoumarol)), 22 ± 7%; in the data set with PC-3 (PC-3 + DVED), 6 ± 5%; with PC-3 (PC-3) it was 23 ± 3%. Also, the “Apoptosis (%) After Drug Treatment” value in the data set with DU-145 (DU-145 + DC (50 μM dicoumarol)) came to 43 ± 12%; in the data set on DU-145 (DU-145 + DVED), 10 ± 5%; with DU-145 (DU-145), 30 ± 06%.

Source of the values: patent publication US6890950B2, “Lapachone delivery systems, compositions and uses related thereto” (priority 2002, dated 2005).
